Where two headings read alike, the source gives them in different places.
Tests used:
[1] = test system: Escherichia coli (ATCC No. 8739); assay: Antibacterial activity, log reduction of cfu; type: cell-based; conditions: Escherichia coli
From the text: (§1) The viable microorganisms used in the invention were not more than five passages removed from the original ATCC culture. As described herein, one passage is defined as the transfer of organisms from an established culture to fresh medium and all transfers are counted.
(§2) Cultures received from the ATCC are resuscitated according to the directions provided by the ATTC. Cells grown in broth were pelleted by centrifugation, resuspended in 1/20th the volume of fresh maintenance broth, and combined with an equal volume of 20% (v/v in water) sterile glycerol. Cells grown on agar were scraped from the surface into the maintenance broth also containing 10% glycerol broth. Small aliquots of the suspension were dispensed into sterile vials and the vials were stored in liquid nitrogen or in a mechanical freezer at a temperature no higher than about −50 °C. When a fresh seed-stock vial was required, it was removed and used to inoculate a series of working stock cultures. These working stock cultures were then used periodically (each day in the case of bacteria and yeast) to start the inoculum culture.
(§3) The culture conditions for the inoculum culture is substantially as described in Table IV. For example, suitable media can include but is not limited to, Soybean-Casein Digest or Sabouraud Dextrose Agar Medium. […]
(§4) The suspension should be refrigerated if it is not used within 2 hours. To confirm the initial cfu per mL estimate, the number of cfu per mL in each suspension was determined using the conditions of media and microbial recovery incubation times listed in Table IV (e.g., from about 3 to about 7 days). This value serves to calibrate the size of inoculum used in the test. The bacterial and yeast suspensions were used within 24 hours of harvest; whereas the fungal preparation can be stored under refrigeration for up to 7 days.
(§5) To determine which alkylglycoside formulations have antibacterial activity, the formulations were prepared in phosphate buffered saline (PBS) at pH 7. As a source of nutrition, either 1.5 mg/mL bovine serum albumin (BSA; see Tables V and VI) or 1 mg/mL of PYY was added (see Table VII) to the medium. BSA (CAS Number: 9048-46-8) was obtained from Sigma-Aldrich, St. Louis, MO, USA, n-dodecyl-4-O-α-D-glucopyranosyl-β-D-glucopyranoside and n-tetradecyl-4-O-α-D-glucopyranosyl-β-D-glucopyranoside were obtained from Anatrace Inc., Maumee, OH, USA, and PYY was obtained from Bachem California Inc., Torrance, CA, USA.
(§6) Antibacterial activity of the alkylglycosides were conducted in four sterile, capped bacteriological containers of suitable size into which a sufficient volume of alkylglycoside solution had been transferred. Each container was inoculated with one of the prepared and standardized inoculums and mixed. The volume of the suspension inoculum was between about 0.5% and about 1.0% of the volume of the alkylglycoside solution. […]. To determine the level of inhibition of growth, or reduction of growth based on a logarithmic scale, the initial concentration of viable microorganisms in each test preparation was estimated based on the concentration of microorganisms in each of the standardized inoculum as determined by the plate-count method. The inoculated containers were then incubated at about 22.5 °C±2.5. The growth or non-growth of the microorganisms in each culture/container were again determined at day 14 and day 28. The number of cfu present in each calculation was determined by the plate-count procedure standard in the art for the applicable intervals. The change in the orders of magnitude of bacterium and/or fungi was then determined by subtracting the first calculated log 10 values of the concentrations of cfu per mL present at the start or beginning (e.g., day 0), from the log 10 values of the concentration of cfu per mL for each microorganism at the applicable test intervals (e.g., day 14 and day 28; see Tables V, VI and VII).

[2] = test system: Staphylococcus aureus (ATCC No. 6538); assay: Antibacterial activity, log reduction of cfu; type: cell-based
From the text: as §1, §2, §3, §4, §5, §6

[3] = test system: Candida albicans (ATCC No. 10231); assay: Antimicrobial activity, log reduction of cfu; type: cell-based
From the text: as §1, §2, §3, §4, §5, §6

[4] = test system: Aspergillus niger (ATCC No. 16404); assay: Antimicrobial activity, log reduction of cfu; type: cell-based; conditions: for log reduction at […]: Aspergillus niger
From the text: as §1, §2, §3, §4, §5, §6

[5] = rat, in vivo
Experimental: Each set of drug solutions is administered to six groups of eight rats each by 20 uL instillation to a single nare of each animal. […] After the last blood sample is collected each animal is euthanized with CO2. […] Plasma samples are stored at −70 °C until analyzed. […] The concentration vs time data are plotted to determine the Cmax at each alkylsaccharide concentration and the ratio of Cmax with and without alkylsaccharide present is calculated and recorded as shown in Table XIX.

[6] = Oral phenylephrine tablet bioavailability in a canine model; type: in vivo, dog; conditions: compressed tablets
Experimental: In a canine model, subjects were dosed orally with various phenylephrine (PE) tablet formulations, and blood samples were taken to determine the rate of parent phenyl ethyl phenylephrine absorption. Blood levels of parent phenylephrine were measured. Three subject groups were created with each alkylsaccharide test group containing five subjects in each test group. All subject groups received 10 mg of phenylephrine as a single tablet. Each subject was in the fasting state for overnight and two hours post dose. Blood samples were taken at pre-dose, 5, 10, 15, 30, 45 min., 1, 2, and 3 hours.
Comparator was the standard 30 mg (total weight including excipients) phenylephrine tablet was no absorption enhancer. Group number 2 tablets contain the alkylsaccharide designated A3, which is n-dodecyl-beta-D-maltoside in the amounts of 2.5 mg, 5 mg, and 7.5 mg, respectively. Group number three tablets contain the alkylsaccharide designated B3, which is sucrose monododecanoate, in the amounts of 5 mg, 10 mg, and 20 mg, respectively.

blood glucose = assay: Ocular administration of insulin plus absorption enhancer, blood glucose in anesthetized rats; type: in vivo, rat (male Sprague-Dawley); conditions: for Blood Glucose: insulin eye drops + 0.50%

Work on `CCCCCCCCCCCCO[C@@H]1O[C@H](CO)[C@@H](O[C@H]2O[C@H](CO)[C@@H](O)[C@H](O)[C@H]2O)[C@H](O)[C@H]1O` [Dodecyl Maltoside, n-Dodecyl-4-O-α-D-glucopyranosyl-β-D-glucopyranoside] yielded a log reduction at […] ([1]; ATCC8739, 336 h) of no less than 5, a log reduction at […] ([1]; ATCC8739, 672 h) of no less than 5 and a log reduction at […] ([1]; ATCC8739, 672 h, read-out: log reduction of microorganisms) of 0.1. The log reduction at […] ([2]; ATCC6538, 336 h) was no less than 4.9, the log reduction at […] ([2]; ATCC6538, 336 h, read-out: log reduction of microorganisms) was no less than 5.2 and the log reduction at […] ([2]; ATCC6538, 672 h) was no less than 4.9. The log reduction at […] ([2]; ATCC6538, 672 h, read-out: log reduction of microorganisms) was no less than 5.2, the log reduction at […] ([3]; ATCC10231, 336 h) was no less than 4.5 and the log reduction at […] ([3]; ATCC10231, 336 h, read-out: log reduction of microorganisms) was 3. The log reduction at […] ([3]; ATCC10231, 672 h) was no less than 4.5, the log reduction at […] ([3]; ATCC10231, 672 h, read-out: log reduction of microorganisms) was no less than 5.3 and the log reduction at […] ([4]; ATCC16404, 336 h) was 4.7. For the same molecule, the log reduction at […] ([4]; ATCC16404, 336 h, read-out: log reduction of microorganisms) was 0.7, the log reduction at […] ([4]; ATCC16404, 672 h) was 4.7 and the “growth from initial count” value ([4]; […], day 28) was “No growth”. The “Ratio Cmax(alkylsacch)/Cmax(No alkylsacch)” value [5] was no less than 1.5, the “increase of oral bioavailability of phenylephrine” value [6] was “up to 56%” and the “effect on ocular insulin absorption” value (blood glucose; 0.5% and […] enhancer with insulin eye drops) was “equally effective”. For the same molecule, the “effect on blood glucose / ocular insulin absorption” value (blood glucose; 0.5% enhancer with 0.2% insulin eye drops) was “maintained in the normoglycemic (80-120 mg/dl) or near-normoglycemic (120-160 mg/dl) range”, the “effect on ocular insulin absorption (alkyl chain length comparison)” value (blood glucose; alkylmaltosides with insulin eye drops) was “more effective” and the Blood Glucose (blood glucose; 0 min) was 379 ± 4 mg/dL. The Blood Glucose (blood glucose; 30 min) was 297 ± 18 mg/dL, the Blood Glucose (blood glucose; 60 min) was 188 ± 25 mg/dL and the Blood Glucose (blood glucose; 90 min) was 141 ± 13 mg/dL. The Blood Glucose (blood glucose; 120 min) was 123 ± 5 mg/dL, the Blood Glucose (blood glucose; -10 min (pre-dose)) was 366 ± 12 mg/dL and the Blood Glucose (blood glucose; -20 min (pre-dose)) was 375 ± 9 mg/dL.
